Experimental data from publication PMC4747383, “Design of a peptidic inhibitor that targets the dimer interface of a prototypic galectin” (Oncotarget, 2015).
No end group written: not given here.

How the values were obtained:
recombinant hGal-1 = experiment: Disruption of hGal-1 dimers, native gel electrophoresis/Western blot; type: biochemical, human; conditions: recombinant hGal-1, 20 mM potassium phosphate pH 7.1, films overexposed, three independent experiments
Excerpt: (§1) To measure the ability of the peptides to disrupt the formation of hGal-7 dimers, we used mild denaturing native gel electrophoresis, a commonly used approach to visualize monomer-dimer equilibrium (Fig. 1A and Supplementary Fig. S1). […] This specificity at disrupting hGal-7 dimer formation is provided by distinct three-dimensional arrangements between otherwise very similar galectin homologues. Indeed, while all monomeric galectins reveal identical topologies, dimer formation in hGal-7 proceeds through a “back-to-back” topology of the monomers while other galectins, including hGal-1 and hGal-2, adopt a “side-by-side” structural arrangement (Fig. 1B). This structural organization provides additional means to specifically target and disrupt galectin function.
(§2) Incubation of the recombinant B. hGal-1 and C. hGal-2 with hGal-7(129–135) was performed in the same potassium phosphate buffer. The effect of hGal-7(129–135) on the monomeric and dimeric forms of hGal-7/hGal-1/hGal-2 was assessed by Western blotting in native conditions with respective antibodies. The hGal-1/hGal-2 films were overexposed. PACAP28–38 was the control peptide used in order to ensure the specificity of hGal-7(129–135). […]
(§3) Human Gal-7 cDNA was cloned into pET-22b(+) using NdeI and HindIII restriction enzymes. […] Purified fractions were analyzed by SDS-PAGE. […]

recombinant hGal-2 = experiment: Disruption of hGal-2 dimers, native gel electrophoresis/Western blot; type: biochemical, human; conditions: recombinant hGal-2, 20 mM potassium phosphate pH 7.1, films overexposed, three independent experiments
Excerpt: as §1, §2, §3

[1] = set-up: method as in PMID 22922050; conditions: ref [51]; cited from earlier work

Substance: H-LDSVRIP-NH2 [hGal-7(129–135), peptide corresponding to hGal-7 segment between residues 129–135]
- disruption of hGal-1 homodimers (recombinant hGal-1): No such effect was observed
- disruption of hGal-2 homodimers (recombinant hGal-2): No such effect was observed

Substance: PACAP(28–38): an inactive fragment of the human Pituitary Adenylate Cyclase-Activating Polypeptide (PACAP) (GKRYKQRVKNK-NH2; ends and bridges not checked; UniProt P18509 159-169, looked up, fragment)
- binding of cell surface phospholipids [1]: binds cell surface phospholipids
